# Source: ChEMBL document CHEMBL2385049, “The effects and mechanism of flavonoid-rePON1 interactions. Structure-activity relationship study” (Bioorg Med Chem, 2013)
# Calls of active or inactive are those of the source. The calls are words filed in the database; no cut-off is given here.
# Columns and labels:
# [1] = target: Serum paraoxonase/arylesterase 1 (Homo sapiens) (UniProt P27169); experiment: Binding affinity to recombinant paraoxonase-1 (unknown origin) expressed in Escherichia coli
# [2] = target: Serum paraoxonase/arylesterase 1 (Homo sapiens) (UniProt P27169); experiment: Binding affinity to recombinant paraoxonase-1 (unknown origin) expressed in Escherichia coli after 5 mins by Trp-fluorescence quenching method
# [3] = target: Serum paraoxonase/arylesterase 1 (Homo sapiens) (UniProt P27169); experiment: Activation of recombinant paraoxonase-1 (unknown origin) expressed in Escherichia coli assessed as delaying of Cu2+-induced LDL oxidation time after 15 mins by UV ELISA
# Sequence of Serum paraoxonase/arylesterase 1 (Homo sapiens) (P27169 whole entry): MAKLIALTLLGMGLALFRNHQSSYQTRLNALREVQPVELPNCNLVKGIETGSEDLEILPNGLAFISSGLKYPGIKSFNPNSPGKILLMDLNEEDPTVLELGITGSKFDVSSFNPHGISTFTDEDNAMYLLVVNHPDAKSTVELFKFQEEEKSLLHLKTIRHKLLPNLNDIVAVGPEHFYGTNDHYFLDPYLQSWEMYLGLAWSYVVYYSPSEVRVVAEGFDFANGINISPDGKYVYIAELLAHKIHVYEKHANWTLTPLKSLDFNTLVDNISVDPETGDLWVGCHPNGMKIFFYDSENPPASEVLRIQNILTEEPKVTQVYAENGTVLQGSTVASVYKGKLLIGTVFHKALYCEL
SMILES,Ka [1],KSV [2],Activity [3],TIME [3]
O=c1c(-c2ccc(O)cc2)coc2cc(O)ccc12,1.13 ×10⁵ /M,0.58 ×10⁵ /M,,
O=c1cc(-c2ccc(O)cc2)oc2cc(O)cc(O)c12,1.13 ×10⁵ /M,1.15 ×10⁵ /M,,
Oc1cc(O)c2c(c1)OC(c1ccc(O)c(O)c1)C(O)C2 (stereo not given),,,inactive,
O=c1cc(-c2ccc(O)c(O)c2)oc2cc(O)cc(O)c12,1.33 ×10⁵ /M,1.34 ×10⁵ /M,,
O=c1c(-c2ccc(O)cc2)coc2cc(O)cc(O)c12,0.86 ×10⁵ /M,0.64 ×10⁵ /M,,
COc1ccc([C@@H]2CC(=O)c3c(O)cc(O)cc3O2)cc1O,0.66 ×10⁵ /M,0.6 ×10⁵ /M,,
O=c1cc(-c2ccc(O)cc2O)oc2ccccc12,0.75 ×10⁵ /M,0.54 ×10⁵ /M,,
CC1(C)C=Cc2c(ccc3c2OC[C@@H](c2ccc(O)cc2O)C3)O1,2.4 ×10⁵ /M,1.93 ×10⁵ /M,,1.33 h
O=C1C[C@@H](c2ccc(O)cc2)Oc2cc(O)cc(O)c21,0.68 ×10⁵ /M,0.35 ×10⁵ /M,,
O=c1cc(-c2ccc(O)c(O)c2)oc2cc(O)ccc12,1.07 ×10⁵ /M,0.87 ×10⁵ /M,,
O=c1c(O)c(-c2ccc(O)c(O)c2)oc2cc(O)cc(O)c12,1.28 ×10⁵ /M,1.25 ×10⁵ /M,Active,
O=c1c(O)c(-c2ccc(O)cc2)oc2cc(O)cc(O)c12,1.43 ×10⁵ /M,1.22 ×10⁵ /M,,
